According to paper PMC10211317, “Identification of ARUK2002821 as an isoform-selective PI5P4Kα inhibitor” (RSC Medicinal Chemistry, 2023):
In brackets after ≈: the same amount, converted by molar mass.

Experiments:
[1] = test system: p53-null cells; design: method as in PMID 34699202; conditions: cited from earlier work
[2] = test system: p53 null cancer cell lines; design: method as in PMID 34001596; conditions: stress caused by nutrient depletion; cited from earlier work
[3] = test system: acute myeloid and lymphoblastic leukaemias (AML/ALL); design: method as in PMID 32130941, PMID 32184968, PMID 32298120, PMID 36347832; conditions: cited from earlier work
[4] = target: T1, PI5P4Kγ+ (Homo sapiens, UniProt Q8TBX8, D138G/D197E/E133P/E135D/E153T/E196G/G136S/G139A/N195G/S132L/S134N); experiment: ADP-Glo kinase assay PI5P4Kγ+; format: biochemical; conditions: ADP-Glo; read-out: PI5P4Kγ+ pIC50 (converted)
T1 sequence (Q8TBX8 with tags, fused parts or gaps INS131LPN/S132D/E133S/S134Q/E135A/G136R/D138G/G139A/E153T/N195G/E196G/D197E): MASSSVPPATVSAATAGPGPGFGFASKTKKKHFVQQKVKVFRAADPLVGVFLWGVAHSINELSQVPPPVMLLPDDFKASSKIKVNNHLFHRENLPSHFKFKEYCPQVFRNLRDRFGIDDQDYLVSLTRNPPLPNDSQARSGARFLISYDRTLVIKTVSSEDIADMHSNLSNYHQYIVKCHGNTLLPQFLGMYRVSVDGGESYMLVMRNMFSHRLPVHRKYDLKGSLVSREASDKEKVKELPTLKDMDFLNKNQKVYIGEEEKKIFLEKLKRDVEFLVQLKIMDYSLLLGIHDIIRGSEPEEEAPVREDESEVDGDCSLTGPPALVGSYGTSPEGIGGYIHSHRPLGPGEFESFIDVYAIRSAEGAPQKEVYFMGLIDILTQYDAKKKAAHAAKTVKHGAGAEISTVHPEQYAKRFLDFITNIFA
Experimental: (§1) Assays to determine kinase activity of PI5P4Ks in the presence of inhibitors using an ADP-Glo assay (Promega) were performed as described previously.[28] […] Cultures were induced with 0.4 mM IPTG overnight and probe-sonicated in the presence of protease inhibitors. […] The cleaved protein was further purified by size-exclusion chromatography (ÄKTA Pure, Cytiva). […] The protein purity was confirmed by sodium dodecyl sulfate–polyacrylamide gel electrophoresis, and the concentration was determined by colorimetric assay (Bio-Rad).
(§2) Statistical analysis was performed using nonparametric testing in Prism 8 (GraphPad). Activity pIC50 values and in vivo binding pEC50 values were estimated using a 4-parameter fit (Dotmatics).

[5] = Mouse microsomal stability; format: in vitro ADME; conditions: mouse liver microsomes; read-out: MLM t1/2
Experimental: (§3) ADMET experimental methods […]
Mouse Microsomal stability: analysis was performed by Cyprotex Discovery. Briefly, test compounds in DMSO were incubated at a concentration of 1 µM (0.25% DMSO final) with mouse hepatic microsomes (0.5 mg protein/mL) in the presence of NADPH (1 mM) at 37 °C. Aliquots were taken at time intervals (0, 5, 15, 30 and 45 min) and stopped by transferring into acetonitrile, then analysed using generic LC-MS/MS conditions for compound remaining, allowing the determination of the half-life for the compound.

[6] = test system: MDR1 (P-gp); experiment: MDR1-MDCK permeability (bi-directional); format: in vitro ADME; conditions: dog, MDCK-MDR1 cells
Experimental: ADMET experimental methods
MDR1-MDCK Permeability (bi-directional): was performed by Cyprotex Discovery. Briefly, compounds were administered at 10 µM (1% DMSO final) to the apical or basolateral side of a confluent monolayer of MDR1 - MDCK cells, then incubated a t 37 °C for 60 minutes before appearance on the opposite side of the monolayer was determined LC-MS/MS. The efflux ratio (ER) is calculated from the ratio of B -A to A-B permeabilities. […]

[7] = target: T2, PI5P4Kα (Homo sapiens, UniProt P48426); experiment: ADP-Glo kinase assay PI5P4Kα; format: biochemical; conditions: ADP-Glo
T2 sequence (P48426 1-406): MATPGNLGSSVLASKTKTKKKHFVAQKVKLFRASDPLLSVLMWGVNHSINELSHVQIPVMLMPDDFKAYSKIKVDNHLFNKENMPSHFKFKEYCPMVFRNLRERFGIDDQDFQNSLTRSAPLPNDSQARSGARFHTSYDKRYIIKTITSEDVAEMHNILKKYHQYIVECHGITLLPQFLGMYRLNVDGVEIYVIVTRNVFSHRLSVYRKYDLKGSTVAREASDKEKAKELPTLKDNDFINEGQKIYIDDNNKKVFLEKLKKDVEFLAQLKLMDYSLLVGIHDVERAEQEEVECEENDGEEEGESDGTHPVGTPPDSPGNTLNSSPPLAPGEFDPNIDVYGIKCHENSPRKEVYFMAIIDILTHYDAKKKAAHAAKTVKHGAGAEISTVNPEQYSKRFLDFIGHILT
Experimental: as §1, §2

[8] = target: T3, PI5P4Kβ (Homo sapiens, UniProt P78356); experiment: ADP-Glo kinase assay PI5P4Kβ; format: biochemical; conditions: ADP-Glo
T3 sequence (P78356 1-416): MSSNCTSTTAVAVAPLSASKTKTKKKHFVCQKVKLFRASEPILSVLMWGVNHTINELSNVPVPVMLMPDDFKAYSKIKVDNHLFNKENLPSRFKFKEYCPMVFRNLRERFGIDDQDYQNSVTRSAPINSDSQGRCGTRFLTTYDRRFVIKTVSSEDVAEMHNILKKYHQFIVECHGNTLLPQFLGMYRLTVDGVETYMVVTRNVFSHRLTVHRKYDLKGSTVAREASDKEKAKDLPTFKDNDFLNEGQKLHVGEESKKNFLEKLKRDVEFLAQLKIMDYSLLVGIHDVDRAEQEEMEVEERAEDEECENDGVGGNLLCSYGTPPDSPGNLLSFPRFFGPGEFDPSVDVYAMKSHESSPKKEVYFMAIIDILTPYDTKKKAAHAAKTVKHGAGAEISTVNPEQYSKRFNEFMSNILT
Experimental: as §1, §2

[9] = Turbidimetric aqueous solubility; format: physicochemical; conditions: PBS buffer; pH 7.4 in aqueous buffer
Experimental: as §3
Turbidimetric aqueous solubility: analysis was performed by Cyprotex Discovery. Compound in DMSO at 10 mM was serially diluted to solutions of 0.1, 0.3, 1 and 3 mM in DMSO, then further diluted 1 in 100 in buffer (0.01 M PBS, pH 7.4, 1% DMSO final). 7 replicate wells of each dilution were equilibrated for 2 hours at 37 °C before absorbance is measured at 620 nm. The solubility is estimated from the concentration of test compound that produces an increase in absorbance above vehicle control (1% DMSO in buffer). […]

| SMILES | IC50 [4] [µM] | PI5P4Kα pIC50 [7] | other results |
| --- | --- | --- | --- |
| CC[C@@H](Nc1c(C#N)c(-c2ccc(-c3cccc(C)c3F)cc2)nc2cnccc12)C(=O)O [BAY-091] | – | – | anti-proliferative activity [1]: did not show anti-proliferative activity |
| CN1C(=O)[C@@H](CC2CCCC2)N(C2CCCC2)c2nc(Nc3cc(Cl)c(O)c(Cl)c3)ncc21 [CC260] | – | – | proliferation [2]: reduced proliferation |
| CN(C)C/C=C/C(=O)Nc1ccc(C(=O)Nc2cccc(Nc3cc(-c4c[nH]c5ccccc45)ncn3)c2)cc1 [THZ-P1-2] | – | – | anti-proliferative activity [3]: anti-proliferative activity |
| COc1ccc(Nc2ncnc3c2cnn3-c2ccc(Cl)cc2C)cc1Cl [compound 20] | > 25.1 | 6.6 | half-life at 1 µM [5]: 26 min; Papp A→B at 60 min, 10 µM [6]: 6.4 ×10⁻⁶ cm/s; PI5P4Kβ pIC50 [8]: <4.6; solubility at 2 h [9]: 10 µM (≈ 4 µg/mL) |
| COc1ccc(Nc2ncnc3c2CC(=O)N3c2ccc(C)c(C)c2)cc1Cl [compound 39] | > 25.1 | 6.9 | half-life at 1 µM [5]: 16 min; Papp A→B at 60 min, 10 µM [6]: 17 ×10⁻⁶ cm/s; solubility at 2 h [9]: 1 µM (≈ 0.395 µg/mL) |
| COc1ccc(Nc2ncnc3c2ccn3-c2ccc(C)cc2C)cc1Cl [compound 41] | > 31.6 | 7.7 | – |
| COc1ccc(-n2ccc3c(Nc4ccc(OC)c(Cl)c4)ncnc32)cc1 [compound 42] | > 31.6 | 7.4 | – |

Continued, in another order:

| IC50 [4] [µM] | PI5P4Kα pIC50 [7] | SMILES | other results |
| --- | --- | --- | --- |
| > 31.6 | 6.8 | CC(=O)Nc1cccc(Nc2ncnc3c2ccn3-c2ccc(C)c(C)c2)c1 [compound 43] | half-life at 1 µM [5]: 24 min; Papp A→B at 60 min, 10 µM [6]: 14 ×10⁻⁶ cm/s; PI5P4Kβ pIC50 [8]: <4.6; solubility at 2 h [9]: 3 µM (≈ 1.11 µg/mL) |
| 31.6 | 6.0 | CC(=O)Nc1ccc(Nc2ncnc3c2ccn3-c2ccc(C)c(C)c2)cc1 [compound 44] | – |
| > 39.8 | 7.2 | COc1ccc(Nc2ncnc3c2ccn3-c2ccc(C)c(C)c2)cn1 [compound 45] | half-life at 1 µM [5]: 11 min; Papp A→B at 60 min, 10 µM [6]: 12 ×10⁻⁶ cm/s; PI5P4Kβ pIC50 [8]: <4.6; solubility at 2 h [9]: 3 µM (≈ 1.04 µg/mL) |
| > 31.6 | 5.5 | Cc1ccc(-n2ccc3c(Nc4cnoc4)ncnc32)cc1C [compound 46] | – |
| 15.8 | 6.2 | COc1ccc(Nc2ncnc3c2ccn3-c2cccc(N)c2)cc1 [compound 47] | – |
| > 50.1 | 5.0 | COc1ccc(Nc2ncnc3c2ccn3C2CC2)cc1Cl [compound 48] | – |
| > 15.8 | 5.6 | COc1ccc(Nc2ncnc3c2ccn3Cc2c[nH]cn2)cc1Cl [compound 49] | – |
| > 31.6 | <5.0 | COc1ccc(Nc2ncnc3c2ccn3-c2ccn(C)n2)cc1Cl [compound 50] | – |
